Legend:
human IRAK4 = target: T1, human IRAK4 (Homo sapiens, UniProt Q9NWZ3); assay: IRAK4 MSA (Mobility-Shift Assay) at Km ATP; type: biochemical; details: GST-IRAK4 1 nM, ATP 37 μM (Km); read-out: IC50 for inhibiting human IRAK4 kinase
T1 construct: purchased Cama (so in the source)
T1 sequence (Q9NWZ3 1-460): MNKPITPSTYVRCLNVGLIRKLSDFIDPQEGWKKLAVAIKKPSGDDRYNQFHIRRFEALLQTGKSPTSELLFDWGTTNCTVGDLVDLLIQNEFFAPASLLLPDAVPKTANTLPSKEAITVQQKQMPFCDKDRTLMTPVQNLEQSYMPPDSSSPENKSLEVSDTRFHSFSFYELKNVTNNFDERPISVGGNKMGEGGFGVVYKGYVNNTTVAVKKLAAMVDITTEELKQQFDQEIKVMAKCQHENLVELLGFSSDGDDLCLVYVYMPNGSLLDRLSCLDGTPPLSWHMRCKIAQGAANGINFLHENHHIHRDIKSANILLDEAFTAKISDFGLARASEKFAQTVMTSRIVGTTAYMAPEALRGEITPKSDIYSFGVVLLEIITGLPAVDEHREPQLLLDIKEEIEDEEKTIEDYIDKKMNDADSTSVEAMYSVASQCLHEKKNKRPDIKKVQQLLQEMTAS
Protocol: A recombinant fusion protein of N-terminal GST (glutathione-S-transferase) and human IRAK4 was used as enzyme (GST-IRAK4, kinase IRAK4 (Cama)) at a final concentration of 1 nM; ATP (Sigma) was at a final concentration of 37 μM; the substrates used for the kinase reaction were a 5-FAM (5-carboxyfluorescein)-labeled polypeptide (5-FAM-[…]-COOH) and a substrate peptide FAM-P8 (GL Biochem) at final concentrations of […].
In this assay, 500 μM solutions of the compounds were prepared in 100% DMSO, and serially 4-fold diluted to the 10th concentration gradient with 100% DMSO, followed by a 10-fold dilution in the compound buffer (50 mM HEPES. pH 7.5, 0.00015% Brij-35) to give intermediate dilutions of the compounds at a final concentration of 10 μM-0.04 nM containing 10% DMSO respectively, 5 μL of the dilutions were transferred into a black 384-well plate respectively.
IRAK4 was diluted to 2.5 nM in the kinase buffer (50 mM HEPES, pH 7.5, 0.00015% Brij-35, 2 mM DTT). 10 μL of the IRAK4 dilution was transferred to the 384-well plate and co-incubated with the compound for 10-15 min.
The substrate and ATP were diluted to 12.5 μM and 92.5 μM with reaction buffer (50 mM HEPES, pH 7.5, 0.00015% Brij-35, 10 mM MgCl2), respectively. 10 μL of the dilutions were transferred to a 384-well plate and incubated at 28° C. for 1 h respectively. The reaction was terminated by adding 25 μL of 50 mM EDTA to the 384-well plate.
The inhibition rates of IRAK4 by the compounds were calculated by measuring the rate of phosphorylated substrate using a Caliper EZ Reader (PerkinElmer) and the IC50 values were calculated by XL-fit software.

[1] = test system: TNF-α release in LPS-induced Balb/c female mice; assay: Inhibition of TNF-α release in LPS-induced Balb/c female mice; type: in vivo, mouse; design: concentration or dose not given beside the values; details: oral gavage 5 h before LPS induction, serum 1.5 h after stimulation
Protocol: In the normal control groups, the animals received an intraperitoneal injection of normal saline (10 mL/kg) and in the model groups, the animals received LPS stimulation (Sigma CAT #L2630, i.p., 10 mL/kg, 0.2 mg/kg). During the assay, to the test compounds, DMSO, Solutol and 10 mM PBS were sequentially added to prepare a solution or suspension of required concentration for administration. For the vehicle, DMSO, Solutol and 10 mM PBS were mixed in a volume ratio of 5:15:80. In each of the groups, the animals were administered through oral gavage (10 mL/kg) 5 h before LPS (or saline) stimulation at predetermined doses, and euthanized with CO2 at 1.5 h after the stimulation for cardiac blood collection. The whole blood was not anticoagulated, incubated in wet ice for 1.5 h, and centrifuged at 2000×g at 4° C. for 10 min to separate the serum. The serum was frozen at −80° C. for TNF-α assay. Quantification of the TNF-α was done with TNF-α ELISA kit according to the manufacturer's instruction.

[2] = Stability in human liver microsomes; type: in vitro ADME; details: for half-life at 1 μM: pH 7.4, ∞ = no obvious metabolism found during assay, read-out: Stability test in liver microsomes t1/2, Human
Protocol: (§1) 1. Preparation of buffer C:
(§2) Buffer A: 1.0 L of 0.1 M monopotassium phosphate buffer (containing 1.0 mM EDTA);
(§3) Buffer A: 1.0 L of 0.1 M dipotassium phosphate buffer (containing 1.0 mM EDTA);
(§4) Buffer C: Buffer A was added to 700 mL of buffer B until pH reached 7.4.
(§5) The test compound and the reference were separately dissolved in DMSO to give 10 mM stocks.
(§6) 500 μM solution: 10 μL of 10 mM stock solution was added to 190 μL of acetonitrile;
(§7) 1.5 μM dosing solution (in liver microsome solution):
(§8) 18.75 μL of 20 mg/mL liver microsomes were added to 479.75 μL of buffer C, followed by 1.5 μL of 500 μM solution. The mixture was gently shaken to mix well.
(§9) NADPH was weighed, to which an appropriate amount of buffer C was added to prepare a 6 mM NADPH solution.
(§10) 5. 30 μL of 1.5 μM dosing solution was added to wells of a 96-well plate set for different time points (0 min, 5 min, 15 min, 30 min, 45 min) in duplicate.
(§11) 6. Preparation of 0 min samples: 135 μL of acetonitrile (containing internal standard) was added to the 0 min wells, followed by 15 μL of 6 mM NADPH solution.
(§12) 7. The 96-well plate containing 1.5 μM dosing solution and NADPH solution were preheated for 5 min in a water bath at 37° C.
(§13) 8. 15 μL of pre-heated 6 mM NADPH solution was added to wells set for 5 min, 15 min, 30 min and 45 min to start the reaction.
(§14) 9. At time points of 5 min, 15 min, 30 min and 45 min, the reaction was terminated by adding 135 μL of acetonitrile (containing internal standard). The mixtures were vortexed for 10 min and centrifuged at 5594×g for 15 min (Thermo Multifuge×3R).
(§15) 10. 50 μL of the supernatant was transferred to wells of a 96-well plate containing 50 μL of water. The samples were mixed and finally subjected to LC-MS/MS analysis.

[3] = Stability in rat liver microsomes; type: in vitro ADME; details: for Stability test in liver microsomes t1/2, Rat: ∞ = no obvious metabolism found during assay; for half-life at 1 μM: pH 7.4, ∞ = no obvious metabolism found during assay, read-out: Stability test in liver microsomes t1/2, Rat
Protocol: as §1, §2, §3, §4, §5, §6, §7, §8, §9, §10, §11, §12, §13, §14, §15

[4] = Stability in mouse liver microsomes; type: in vitro ADME; details: for half-life at 1 μM: pH 7.4, ∞ = no obvious metabolism found during assay, read-out: Stability test in liver microsomes t1/2, Mouse
Protocol: as §1, §2, §3, §4, §5, §6, §7, §8, §9, §10, §11, §12, §13, §14, §15

[5] = ∞ = no obvious metabolism found during assay

IC50 (human IRAK4)	half-life at 1 μM [2]	Stability test in liver microsomes t1/2, Mouse [4, 5]	half-life at 1 μM [3]	half-life at 1 μM [4]	Stability test in liver microsomes t1/2, Human [2, 5]	Compound	Inhibition rate of TNF-α [1]	Stability test in liver microsomes t1/2, Rat [3]
4.2 nM	3240 min	∞				CC(C)(O)c1cc2nn([C@H]3CC[C@](C)(O)CC3)cc2cc1NC(=O)c1cccc(C(C)(F)F)n1 [MY-004-165]	88.99%	∞
6.8 nM	2140 min		292 min	564 min		CN(C)c1cc2nn([C@H]3C[C@H](C(C)(C)O)C3)cc2cc1NC(=O)c1cccc(C(F)(F)F)n1 [MY-004-089]	91.27%	
2.7 nM	469 min		398 min	354 min		COc1cc2nn([C@H]3CC[C@](C)(O)CC3)cc2cc1NC(=O)c1cccc(C(F)(F)F)n1 [MY-004-126-1]	94.43%	
1.9 nM			250 min	283 min	∞	CN(C)c1cc2nn([C@H]3CC[C@H](O)CC3)cc2cc1NC(=O)c1cccc(C(F)(F)F)n1 [MY-004-153]	88.42%	

Compound	IC50 (human IRAK4)	half-life at 1 μM [2]	Stability test in liver microsomes t1/2, Mouse [4, 5]	half-life at 1 μM [3]	half-life at 1 μM [4]	Stability test in liver microsomes t1/2, Human [2, 5]	Inhibition rate of TNF-α [1]	Stability test in liver microsomes t1/2, Rat [3]
COc1cc2nn([C@H]3CC[C@H](O)CC3)cc2cc1NC(=O)c1cccc(C(F)(F)F)n1 [MY-004-127-1]	5.3 nM	770 min		306 min	46100 min		89.29%	
COc1cc2nn([C@H]3CC[C@@](C)(O)CC3)cc2cc1NC(=O)c1cccc(C(F)(F)F)n1 [MY-004-126-2]	1 nM	25700 min			802 min		94.11%	∞

Source: US20220204473A1, “COMPOUND AS IRAK INHIBITOR” (SHANGHAI MEIYUE BIOTECH DEVELOPMENT CO., LTD., priority 2018, published 2022)
